Measured values reported in patent US20120029187A1, “HALOALKYLSULFONANILIDE DERIVATIVE” (Nissan Chemical Industries, Ltd., priority 2009, published 2012).

What was measured:
Format in all cases: in vivo
[1] = test system: transplanted rice; experiment: Test Example 1: preemergence treatment under submerged conditions, effect on crop; settings: dose 2.52 g/a
In short: (§1)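 Weed seeds and 2.5-leaf rice seedlings shared each flooded cup of alluvial soil. Dosing, expressed as g per are, was by pouring water-diluted emulsifiable concentrate onto the surface on sowing day. Mortality was graded 0 to 5 after three weeks' growth.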

[2] = test system: water foxtail; experiment: Test Example 3: herbicidal effects in soil treatment; settings: dose 6.3 g/a
In short: (§2)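 Seeds were sown in sterilized diluvial soil and covered with about 1.5 cm of soil. Compounds, formulated as emulsifiable concentrates and diluted with water, were sprayed evenly over the soil surface at set doses in g/a. Herbicidal effect was scored on a rating scale three weeks later.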

[3] = test system: wild oat; experiment: as above; settings: dose 6.3 g/a
In short: as §2

[4] = test system: common chickweed; experiment: as above; settings: dose 6.3 g/a
In short: as §2

[5] = test system: barnyardgrass; experiment: as above; settings: dose 6.3 g/a
In short: as §2

[6] = test system: redroot pigweed; experiment: as above; settings: dose 6.3 g/a
In short: as §2

[7] = test system: posumbu knotweed; experiment: as above; settings: dose 6.3 g/a
In short: as §2

[8] = test system: large crabgrass; experiment: as above; settings: dose 6.3 g/a
In short: as §2

[9] = test system: giant foxtail; experiment: as above; settings: dose 6.3 g/a
In short: as §2

[10] = test system: common lambsquater; experiment: as above; settings: dose 6.3 g/a
In short: as §2

[11] = test system: velvetleaf; experiment: as above; settings: dose 6.3 g/a
In short: as §2

[12] = test system: common ragweed; experiment: as above; settings: dose 6.3 g/a
In short: as §2

[13] = test system: Italian ryegrass; experiment: as above; settings: dose 6.3 g/a
In short: as §2

[14] = test system: barnyardgrass; experiment: Test Example 1: herbicidal effects in preemergence treatment under submerged conditions; settings: dose 2.52 g/a
In short: as §1

[15] = test system: ducksalad; experiment: as above; settings: dose 2.52 g/a
In short: as §1

[16] = test system: bulrush; experiment: as above; settings: dose 2.52 g/a
In short: as §1

[17] = test system: barnyardgrass; experiment: Test Example 2: herbicidal effects during the vegetation period under submerged conditions; settings: treatment during the vegetation period under submerged conditions; dose 2.52 g/a
In short: (§3)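 Barnyardgrass, bulrush and ducksalad were co-sown in alluvial soil flooded to 4 cm and grown in a greenhouse at 25 to 30° C. At the 1- or 2-leaf stage, water-diluted emulsifiable concentrates went onto the water surface at set doses (g/a). Herbicidal effect was scored three weeks later on a graded scale.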

[18] = test system: ducksalad; experiment: as above; settings: treatment during the vegetation period under submerged conditions; dose 2.52 g/a
In short: as §3

[19] = test system: bulrush; experiment: as above; settings: treatment during the vegetation period under submerged conditions; dose 2.52 g/a
In short: as §3

[20] = test system: water foxtail; experiment: Test Example 4: herbicidal effect in foliage treatment; settings: dose 6.3 g/a, three weeks after application
In short: (§4)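 Seeds sown in sterilized diluvial soil under ~1.5 cm soil cover and grown 14 days in a greenhouse at 25 to 30° C. Emulsifiable concentrates diluted with water were then sprayed uniformly on foliage at predetermined doses (g/a). Herbicidal effect was scored three weeks after application on a graded evaluation scale.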

[21] = test system: wild oat; experiment: as above; settings: dose 6.3 g/a, three weeks after application
In short: as §4

[22] = test system: common chickweed; experiment: as above; settings: dose 6.3 g/a, three weeks after application
In short: as §4

[23] = test system: barnyardgrass; experiment: as above; settings: dose 6.3 g/a, three weeks after application
In short: as §4

[24] = test system: beadstraw; experiment: as above; settings: dose 6.3 g/a, three weeks after application
In short: as §4

[25] = test system: redroot pigweed; experiment: as above; settings: dose 6.3 g/a, three weeks after application
In short: as §4

[26] = test system: posumbu knotweed; experiment: as above; settings: dose 6.3 g/a, three weeks after application
In short: as §4

[27] = test system: large crabgrass; experiment: as above; settings: dose 6.3 g/a, three weeks after application
In short: as §4

[28] = test system: giant foxtail; experiment: as above; settings: dose 6.3 g/a, three weeks after application
In short: as §4

[29] = test system: common lambsquater; experiment: as above; settings: dose 6.3 g/a, three weeks after application
In short: as §4

[30] = test system: velvetleaf; experiment: as above; settings: dose 6.3 g/a, three weeks after application
In short: as §4

[31] = test system: common ragweed; experiment: as above; settings: dose 6.3 g/a, three weeks after application
In short: as §4

[32] = test system: Italian ryegrass; experiment: as above; settings: dose 6.3 g/a, three weeks after application
In short: as §4

Row | Structure (SMILES) | a: transplanted rice, effect on crop (evaluation scale 0-5) [1] | G: water foxtail, herbicidal effect (evaluation scale 0-5) [2] | F: wild oat, herbicidal effect (evaluation scale 0-5) [3] | N: common chickweed, herbicidal effect (evaluation scale 0-5) [4] | A: barnyardgrass, herbicidal effect (evaluation scale 0-5) [5] | K: redroot pigweed, herbicidal effect (evaluation scale 0-5) [6] | M: posumbu knotweed, herbicidal effect (evaluation scale 0-5) [7] | D: large crabgrass, herbicidal effect (evaluation scale 0-5) [8] | E: giant foxtail, herbicidal effect (evaluation scale 0-5) [9] | L: common lambsquater, herbicidal effect (evaluation scale 0-5) [10] | I: velvetleaf, herbicidal effect (evaluation scale 0-5) [11] | J: common ragweed, herbicidal effect (evaluation scale 0-5) [12] | H: Italian ryegrass, herbicidal effect (evaluation scale 0-5) [13] | A: barnyardgrass, herbicidal effect (evaluation scale 0-5) [14] | C: ducksalad, herbicidal effect (evaluation scale 0-5) [15] | B: bulrush, herbicidal effect (evaluation scale 0-5) [16] | A: barnyardgrass, herbicidal effect (evaluation scale 0-5) [17] | C: ducksalad, herbicidal effect (evaluation scale 0-5) [18] | B: bulrush, herbicidal effect (evaluation scale 0-5) [19] | G: water foxtail, herbicidal effect [20] | also measured
1 | O=C1CCOCN1Cc1ccccc1NS(=O)(=O)C(F)(F)F [II-1] | 3 (mortality of at least 40% and less than 70%) | 5 (mortality of 90% or above (nearly complete death)) | 0 (mortality of less than 5% (almost ineffective)) | 5 (mortality of 90% or above (nearly complete death)) | 5 (mortality of 90% or above (nearly complete death)) | 1 (mortality of at least 5% and less than 20%) | 1 (mortality of at least 5% and less than 20%) | 5 (mortality of 90% or above (nearly complete death)) | 5 (mortality of 90% or above (nearly complete death)) | 5 (mortality of 90% or above (nearly complete death)) | 5 (mortality of 90% or above (nearly complete death)) | 5 (mortality of 90% or above (nearly complete death)) | 3 (mortality of at least 40% and less than 70%) | 5 (mortality of 90% or above (nearly complete death)) | 5 (mortality of 90% or above (nearly complete death)) | 5 (mortality of 90% or above (nearly complete death)) | 5 (mortality of 90% or above (nearly complete death)) | 5 (mortality of 90% or above (nearly complete death)) | 5 (mortality of 90% or above (nearly complete death)) | 5 (mortality of 90% or above (nearly complete death)) | F: wild oat, herbicidal effect [21]: 1 (mortality of at least 5% and less than 20%); N: common chickweed, herbicidal effect [22]: 4 (mortality of at least 70% and less than 90%); A: barnyardgrass, herbicidal effect [23]: 5 (mortality of 90% or above (nearly complete death)); O: beadstraw, herbicidal effect [24]: 4 (mortality of at least 70% and less than 90%); K: redroot pigweed, herbicidal effect [25]: 0 (mortality of less than 5% (almost ineffective)); M: posumbu knotweed, herbicidal effect [26]: 0 (mortality of less than 5% (almost ineffective)); D: large crabgrass, herbicidal effect [27]: 5 (mortality of 90% or above (nearly complete death)); E: giant foxtail, herbicidal effect [28]: 5 (mortality of 90% or above (nearly complete death)); L: common lambsquater, herbicidal effect [29]: 4 (mortality of at least 70% and less than 90%); I: velvetleaf, herbicidal effect [30]: 5 (mortality of 90% or above (nearly complete death)); J: common ragweed, herbicidal effect [31]: 4 (mortality of at least 70% and less than 90%); H: Italian ryegrass, herbicidal effect [32]: 4 (mortality of at least 70% and less than 90%)
2 | CCOC(=O)N(c1ccccc1CN1COCCC1=O)S(=O)(=O)C(F)(F)F [II-2] | 1 (mortality of at least 5% and less than 20%) | 5 (mortality of 90% or above (nearly complete death)) | 0 (mortality of less than 5% (almost ineffective)) | 5 (mortality of 90% or above (nearly complete death)) | 5 (mortality of 90% or above (nearly complete death)) | 0 (mortality of less than 5% (almost ineffective)) | 1 (mortality of at least 5% and less than 20%) | 5 (mortality of 90% or above (nearly complete death)) | 5 (mortality of 90% or above (nearly complete death)) | 5 (mortality of 90% or above (nearly complete death)) | 5 (mortality of 90% or above (nearly complete death)) | 5 (mortality of 90% or above (nearly complete death)) | 4 (mortality of at least 70% and less than 90%) | 5 (mortality of 90% or above (nearly complete death)) | 5 (mortality of 90% or above (nearly complete death)) | 5 (mortality of 90% or above (nearly complete death)) | 5 (mortality of 90% or above (nearly complete death)) | 4 (mortality of at least 70% and less than 90%) | 5 (mortality of 90% or above (nearly complete death)) | 5 (mortality of 90% or above (nearly complete death)) | F: wild oat, herbicidal effect [21]: 0 (mortality of less than 5% (almost ineffective)); N: common chickweed, herbicidal effect [22]: 3 (mortality of at least 40% and less than 70%); A: barnyardgrass, herbicidal effect [23]: 5 (mortality of 90% or above (nearly complete death)); O: beadstraw, herbicidal effect [24]: 4 (mortality of at least 70% and less than 90%); K: redroot pigweed, herbicidal effect [25]: 0 (mortality of less than 5% (almost ineffective)); M: posumbu knotweed, herbicidal effect [26]: 3 (mortality of at least 40% and less than 70%); D: large crabgrass, herbicidal effect [27]: 5 (mortality of 90% or above (nearly complete death)); E: giant foxtail, herbicidal effect [28]: 5 (mortality of 90% or above (nearly complete death)); L: common lambsquater, herbicidal effect [29]: 4 (mortality of at least 70% and less than 90%); I: velvetleaf, herbicidal effect [30]: 5 (mortality of 90% or above (nearly complete death)); J: common ragweed, herbicidal effect [31]: 4 (mortality of at least 70% and less than 90%); H: Italian ryegrass, herbicidal effect [32]: 4 (mortality of at least 70% and less than 90%)
